From US5801165A, “Antiinflammatory, immunosuppressive and antialleric 16, 17-alkylidioxy-steroids” (Rhone-Poulenc Rorer Limited, priority 1992, dated 1998)
Read-outs that look alike come from different tables or passages of the source.

Target: T1, Rat thymus glucocorticoid receptor (Rattus norvegicus, UniProt P06536)
T1 construct: The supernatant cytosol is used as the source of receptor; from tissue; host or cells: thymus of male adrenalectomised rats, 100,000 g supernatant cytosol
T1 sequence (P06536 1-795): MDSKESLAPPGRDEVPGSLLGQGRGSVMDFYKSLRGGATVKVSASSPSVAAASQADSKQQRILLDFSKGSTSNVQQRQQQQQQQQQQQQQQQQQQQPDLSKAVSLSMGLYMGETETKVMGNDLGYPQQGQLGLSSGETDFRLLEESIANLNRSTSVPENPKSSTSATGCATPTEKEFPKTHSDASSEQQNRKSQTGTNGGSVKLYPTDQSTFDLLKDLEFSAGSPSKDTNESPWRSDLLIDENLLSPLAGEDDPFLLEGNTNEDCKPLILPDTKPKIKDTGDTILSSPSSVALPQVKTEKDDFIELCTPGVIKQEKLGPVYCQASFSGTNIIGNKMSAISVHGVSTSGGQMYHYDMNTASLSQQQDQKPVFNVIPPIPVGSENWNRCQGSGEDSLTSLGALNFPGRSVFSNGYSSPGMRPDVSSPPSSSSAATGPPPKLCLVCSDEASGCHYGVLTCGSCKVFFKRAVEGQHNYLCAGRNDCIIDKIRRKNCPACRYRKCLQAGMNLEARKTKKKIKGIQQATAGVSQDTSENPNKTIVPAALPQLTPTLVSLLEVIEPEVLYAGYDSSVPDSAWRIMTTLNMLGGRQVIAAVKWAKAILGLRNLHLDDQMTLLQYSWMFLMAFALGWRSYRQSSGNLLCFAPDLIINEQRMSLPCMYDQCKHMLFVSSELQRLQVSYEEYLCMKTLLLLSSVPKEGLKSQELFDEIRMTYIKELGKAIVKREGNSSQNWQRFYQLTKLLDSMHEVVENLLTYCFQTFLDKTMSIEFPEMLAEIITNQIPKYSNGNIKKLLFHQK
Test: Steroid binding to the rat thymus glucocorticoid receptor ([3H] dexamethasone displacement)
Excerpt: GLUCOCORTICOID AGONIST ACTIVITY
STEROID BINDING TO THE RAT THYMUS GLUCOCORTICOID RECEPTOR
Thymi of male adrenalectomised rats are removed and homogenised in 3-(N-morpholino)propanesulphonic acid dithiothreitol buffer, and centrifuged at 100,000 g. The supernatant cytosol is used as the source of receptor. […] Bound [^3 H] dexamethasone is separated from free dexamethasone by a dextran coated charcoal technique and is quantified by liquid scintillation counting.

[1] = 4 nM [3H] dexamethasone, 24 hours at 4° C., rat thymus cytosol, read-out: IC50 (concentration reducing [3H] dexamethasone binding by 50%)

**Q.** With CC1(C)O[C@@H]2C[C@H]3[C@@H]4C[C@H](F)C5=CC(=O)C=C[C@]5(C)[C@@]4(F)[C@@H](O)C[C@]3(C)[C@]2(SCF)O1 [6α,9α-Difluoro-11β-hydroxy-16α,17α-isopropylidenedioxy-17β-(fluoromethylthio)androsta-1,4-dien-3-one] as the compound, how does the IC50 [1] read?
**A.** 4.1 nM

**Q.** Which IC50 [1] does the source give for CS[C@@]12OC(C)(C)O[C@@H]1C[C@H]1[C@@H]3C[C@H](F)C4=CC(=O)C=C[C@]4(C)[C@@]3(F)[C@@H](O)C[C@@]12C [6α,9α-Difluoro-11β-hydroxy-16α,17α-isopropylidenedioxy-17β-(methylthio)androsta-1,4-dien-3-one] here?
**A.** 3.2 nM

**Q.** How did the IC50 [1] turn out when CC1(C)O[C@@H]2C[C@H]3[C@@H]4CCC5=CC(=O)C=C[C@]5(C)[C@@]4(F)[C@@H](O)C[C@]3(C)[C@]2(S(C)(=O)=O)O1 [9α-Fluoro-11β-hydroxy-16α,17α-isopropylidene-dioxy-17β-methylsulphonylandrosta-1,4-dien-3-one] was run?
**A.** 3.8 nM

**Q.** With CC1(C)O[C@@H]2C[C@H]3[C@@H]4CCC5=CC(=O)C=C[C@]5(C)[C@@]4(F)[C@@H](O)C[C@]3(C)[C@]2(Sc2ccccn2)O1 [9α-Fluoro-11β-hydroxy-16α,17α-isopropylidenedioxy-17β-(2-pyridylthio)androsta-1,4-dien-3-one] as the compound, how does the IC50 [1] read?
**A.** 27 nM

**Q.** CS[C@@]12OC(C)(C)O[C@@H]1C[C@H]1[C@@H]3CCC4=CC(=O)C=C[C@]4(C)[C@@]3(F)[C@@H](O)C[C@@]12C [9α-Fluoro-11β-hydroxy-16α,17α-isopropylidenedioxy-17β-(methylthio)androsta-1,4-dien-3-one] was tested. Which IC50 did it give?
**A.** 1.6 nM

**Q.** With CCC[C@@H]1O[C@@H]2C[C@H]3[C@@H]4C[C@H](F)C5=CC(=O)CC[C@]5(C)[C@@]4(F)[C@@H](O)C[C@]3(C)[C@]2(SCF)O1 [(20R)-6α,9α-Difluoro-11β-hydroxy-16α,17α-butylidenedioxy-17β-fluoromethylthioandrost-4-en-3-one] as the compound, how does the IC50 [1] read?
**A.** 3 nM

**Q.** With CCC[C@@H]1O[C@@H]2C[C@H]3[C@@H]4CCC5=CC(=O)C=C[C@]5(C)[C@@]4(F)[C@@H](O)C[C@]3(C)[C@]2([S+](C)[O-])O1 (stereo partly drawn) [(20R)-9α-Fluoro-11β-hydroxy-16α,17α-butylidenedioxy-17β-methylsulphinylandrosta-1,4-dien-3-one] as the compound, how does the IC50 (read-out: IC50 (concentration reducing [3H] dexamethasone binding by 50%), 4 nM [3H] dexamethasone, 24 hours at 4° C., rat thymus cytosol) read?
**A.** 6.6 nM

**Q.** Which IC50 does the source give for CCC[C@@H]1O[C@@H]2C[C@H]3[C@@H]4C[C@H](F)C5=CC(=O)C=C[C@]5(C)[C@@]4(F)[C@@H](O)C[C@]3(C)[C@]2(SCF)O1 [(20R)-16α,17α-Butylidenedioxy-6α,9α-difluoro-11β-hydroxy-17β-(fluoromethylthio)androsta-1,4-dien-3-one] here?
**A.** 2.7 nM

**Q.** How did the IC50 [1] turn out when CCC[C@@H]1O[C@@H]2C[C@H]3[C@@H]4CCC5=CC(=O)C=C[C@]5(C)[C@@]4(F)[C@@H](O)C[C@]3(C)[C@]2(SCF)O1 [(20R)-16α,17α-Butylidenedioxy-9α-fluoro-11β-hydroxy-17β-(fluoromethylthio)androsta-1,4-dien-3-one] was run?
**A.** 7.5 nM

**Q.** For CCC[C@@H]1O[C@@H]2C[C@H]3[C@@H]4CCC5=CC(=O)C=C[C@]5(C)[C@@]4(F)[C@@H](O)C[C@]3(C)[C@]2(SC)O1 [(20R)-16α,17α-Butylidenedioxy-9α-fluoro-11β-hydroxy-17β-(methylthio)androsta-1,4-dien-3-one], which IC50 [1] is on record?
**A.** 1.7 nM

**Q.** How did the IC50 [1] turn out when C/C=C/[C@@H]1O[C@@H]2C[C@H]3[C@@H]4CCC5=CC(=O)C=C[C@]5(C)[C@@]4(F)[C@@H](O)C[C@]3(C)[C@]2(SC)O1 [(20R)-16α,17α-[(E)-2-Butenylidenedioxy]-9α-fluoro-11β-hydroxy-17β-(methylthio)androsta-1,4-dien-3-one] was run?
**A.** 2.6 nM

**Q.** How did the IC50 turn out when CCC[C@@H]1O[C@@H]2C[C@H]3[C@@H]4C[C@H](F)C5=CC(=O)C=C[C@]5(C)[C@@]4(F)[C@@H](O)C[C@]3(C)[C@]2(SC)O1 [(20R)-16α,17α-butylidenedioxy-6α,9α-difluoro-11β-hydroxy-17β-(methylthio)-androsta-1,4-dien-3-one] was run?
**A.** 3.7 nM
